Assay results reported in ChEMBL document CHEMBL1148989, “Meroterpenoid MAPKAP (MK2) inhibitors isolated from the indonesian marine sponge Acanthodendrilla sp” (J Nat Prod, 2004).

Molecular target: MAP kinase-activated protein kinase 2 (Homo sapiens, UniProt P49137)
Test: Inhibition of MK2

MAP kinase-activated protein kinase 2, sequence (P49137 whole entry): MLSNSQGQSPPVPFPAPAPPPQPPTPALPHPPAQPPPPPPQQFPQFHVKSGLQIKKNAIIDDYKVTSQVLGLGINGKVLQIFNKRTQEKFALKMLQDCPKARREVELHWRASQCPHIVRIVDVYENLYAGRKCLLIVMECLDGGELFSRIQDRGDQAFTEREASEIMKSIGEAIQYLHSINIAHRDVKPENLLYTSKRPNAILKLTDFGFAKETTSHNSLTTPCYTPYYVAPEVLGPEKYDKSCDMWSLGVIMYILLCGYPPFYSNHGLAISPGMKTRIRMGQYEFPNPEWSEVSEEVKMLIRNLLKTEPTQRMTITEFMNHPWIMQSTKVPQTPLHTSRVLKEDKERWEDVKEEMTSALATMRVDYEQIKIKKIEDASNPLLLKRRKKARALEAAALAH

Row | IC50 | SMILES
1 | 20 µM | CC1=CC[C@H]2[C@@](C)(CC[C@H]3C(C)(C)CCC[C@]23C)[C@@H]1Cc1cc(C(=O)O)ccc1O
2 | 9.6 µM | CC1=C(CC/C(C)=C/Cc2cc(C(=O)O)ccc2O)[C@@]2(C)CCCC(C)(C)[C@@H]2CC1
